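Exposure lasted 48 hours, with cells grown in 96-well plates and compounds tested at five concentrations. At the GI50, growth is halved.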 Active and inactive are the calls of the source. Cut-off read from the data, not from the text of the source: active = GI50 up to about 1.1 µM and inactive = higher.
Key:
Assay in all cases: NCI anticancer screen, dose series, 48 h
[1] = test system: CCRF-CEM
[2] = test system: COLO 205
[3] = test system: HCC 2998
[4] = test system: MOLT-4
[5] = test system: Malme-3M
[6] = test system: NCI-H23
[7] = test system: NCI-H460
[8] = test system: OVCAR-3
[9] = test system: SF-295
[10] = test system: SF-539
[11] = test system: SK-MEL-28
[12] = test system: SK-MEL-5
[13] = test system: U-251
[14] = test system: UACC-257
[15] = test system: UO-31
[16] = test system: A498
[17] = test system: CAKI-1
[18] = test system: HCT-15
[19] = test system: MCF7
[20] = test system: RXF 393

SMILES | GI50 [1] | GI50 [2] | GI50 [3] | GI50 [4] | GI50 [5] | GI50 [6] | GI50 [7] | GI50 [8] | GI50 [9] | GI50 [10] | GI50 [11] | GI50 [12] | GI50 [13] | GI50 [14] | GI50 [15] | GI50 [16] | GI50 [17] | GI50 [18] | GI50 [19] | GI50 [20]
CC(=O)Nc1ccc(C(=O)NN2C(=O)C(Cl)/C2=C/c2ccco2)cc1 (centres undefined) | > 100 µM (inactive) | > 100 µM (inactive) | > 100 µM (inactive) | > 100 µM (inactive) | > 100 µM (inactive) | > 100 µM (inactive) | > 100 µM (inactive) | > 100 µM (inactive) | > 100 µM (inactive) | > 100 µM (inactive) | > 100 µM (inactive) | > 100 µM (inactive) | > 100 µM (inactive) | > 100 µM (inactive) | > 100 µM (inactive) |  |  |  |  | 
O=C1C=CC(=O)c2c(Cl)ccc(O)c21 |  | 13.1 µM (inactive) | > 100 µM (inactive) | 4.54 µM (inactive) | 18.7 µM (inactive) | 12.4 µM (inactive) | > 65.9 µM (inactive) | 15.6 µM (inactive) | > 42.3 µM (inactive) | > 42.3 µM (inactive) | 18.8 µM (inactive) | 17.7 µM (inactive) | > 57 µM (inactive) | 16.1 µM (inactive) | > 100 µM (inactive) | > 87.9 µM (inactive) | 11.1 µM (inactive) | 17.8 µM | 13.9 µM (inactive) | 16 µM (inactive)
ClCc1ccc2ccc3ccc(CCl)nc3c2n1 | 1.8 µM (inactive) | 1.71 µM (inactive) | 4.11 µM (inactive) | 1.73 µM (inactive) | 1.92 µM (inactive) | 2.9 µM (inactive) | 4.62 µM (inactive) | 1.94 µM (inactive) | 2.31 µM (inactive) | 2.25 µM (inactive) | 1.83 µM (inactive) | 1.4 µM (inactive) | 1.93 µM (inactive) | 1.29 µM (inactive) | 1.69 µM (inactive) | 10.6 µM (inactive) |  | 1.78 µM | 0.955 µM (active) | 1.72 µM (inactive)
C=CCCN1CCc2c([nH]c3ccccc23)C1C(=O)O (centres undefined) | 96.2 µM (inactive) | > 100 µM (inactive) | > 100 µM (inactive) | > 100 µM (inactive) | > 100 µM (inactive) | 78 µM (inactive) | > 100 µM (inactive) | > 100 µM (inactive) | > 100 µM (inactive) | > 100 µM (inactive) | > 100 µM (inactive) | > 100 µM (inactive) | > 100 µM (inactive) | > 100 µM (inactive) | > 100 µM (inactive) | > 100 µM (inactive) | > 100 µM (inactive) |  |  | > 100 µM (inactive)
CON(C)C(C#N)=C(C#N)C#N | > 10 µM (inactive) | > 10 µM (inactive) | > 10 µM (inactive) | > 10 µM (inactive) | > 10 µM (inactive) | > 10 µM (inactive) | > 10 µM (inactive) | > 10 µM (inactive) | > 10 µM (inactive) | > 10 µM (inactive) | > 10 µM (inactive) | > 10 µM (inactive) | > 10 µM (inactive) |  | > 10 µM (inactive) | > 10 µM (inactive) | > 10 µM (inactive) | > 10 µM | > 10 µM (inactive) | > 10 µM (inactive)
CC1=C2C3OC(=O)C(C)C3CCC2(C)C=C/C1=N\c1ccccc1 (centres undefined) | > 100 µM (inactive) | > 100 µM (inactive) | > 100 µM (inactive) | > 100 µM (inactive) | > 100 µM (inactive) | > 100 µM (inactive) | > 100 µM (inactive) | > 100 µM (inactive) | > 100 µM (inactive) | > 100 µM (inactive) | > 100 µM (inactive) | > 100 µM (inactive) | > 100 µM (inactive) | > 100 µM (inactive) | > 100 µM (inactive) | > 100 µM (inactive) |  | > 100 µM | > 100 µM (inactive) | > 100 µM (inactive)
CCOC(=O)c1cc(Br)c(-c2cc(C)no2)[nH]1 |  | 19.8 µM (inactive) |  | 82 µM (inactive) | 20.9 µM (inactive) | 24.4 µM (inactive) | 21.1 µM (inactive) | 21.3 µM (inactive) | 31.1 µM (inactive) | 33.8 µM (inactive) | 32.4 µM (inactive) | 21.7 µM (inactive) | 25.5 µM (inactive) | 28.1 µM (inactive) | 29.1 µM (inactive) | 20.2 µM (inactive) |  | 25 µM |  | 31 µM (inactive)
CN(CCO)Cc1ncccc1O | 68.5 µM (inactive) | > 100 µM (inactive) |  | 25.5 µM (inactive) | > 100 µM (inactive) | > 100 µM (inactive) | > 100 µM (inactive) | > 100 µM (inactive) | > 100 µM (inactive) | > 100 µM (inactive) | > 100 µM (inactive) | > 100 µM (inactive) | > 100 µM (inactive) | > 100 µM (inactive) | > 100 µM (inactive) | > 100 µM (inactive) | > 100 µM (inactive) | > 100 µM | > 100 µM (inactive) | > 100 µM (inactive)
O=C1C(Cl)N(c2ccccc2[N+](=O)[O-])C1c1c[nH]c2ccccc12 (centres undefined) | > 100 µM (inactive) | > 100 µM (inactive) |  | > 100 µM (inactive) | 94.4 µM (inactive) | > 100 µM (inactive) | > 100 µM (inactive) | > 100 µM (inactive) | > 100 µM (inactive) | > 100 µM (inactive) | > 100 µM (inactive) | > 100 µM (inactive) | > 100 µM (inactive) | > 100 µM (inactive) | 54.6 µM (inactive) |  |  |  |  | > 100 µM (inactive)
Cn1cc(-c2csc(-c3cn(C)c4ccccc34)n2)c2ccccc21 | > 100 µM (inactive) | > 100 µM (inactive) |  | 14.1 µM (inactive) | 19.1 µM (inactive) | 84.5 µM (inactive) | 26.5 µM (inactive) | 23.5 µM (inactive) | 23.4 µM (inactive) |  | 61.5 µM (inactive) | 26.9 µM (inactive) | 32.4 µM (inactive) | 48.6 µM (inactive) | > 100 µM (inactive) | 12.6 µM (inactive) | 17.8 µM (inactive) | > 100 µM | 45.5 µM (inactive) | 14.1 µM (inactive)
COc1ccc(CCn2cncn2)cc1 | > 100 µM (inactive) | > 100 µM (inactive) | > 100 µM (inactive) | > 100 µM (inactive) |  | > 100 µM (inactive) | > 100 µM (inactive) | > 100 µM (inactive) | > 100 µM (inactive) | > 100 µM (inactive) | > 100 µM (inactive) | > 100 µM (inactive) | > 100 µM (inactive) | > 100 µM (inactive) | > 100 µM (inactive) |  |  | > 100 µM |  | 
CC(=O)OCc1c(C)c2ccccc2n1C(C)=O | 18.1 µM (inactive) | 44.2 µM (inactive) | 95.3 µM (inactive) | 29.7 µM (inactive) | 25 µM (inactive) | 55 µM (inactive) |  | 26.7 µM (inactive) | 56.9 µM (inactive) | 38.2 µM (inactive) | > 100 µM (inactive) | 35.2 µM (inactive) | 36.3 µM (inactive) | 30.3 µM (inactive) | > 100 µM (inactive) | 38.3 µM (inactive) | > 100 µM (inactive) |  |  | 33 µM (inactive)

Source: ChEMBL document CHEMBL1201862, “PubChem BioAssay data set” (2004)
